From patent US20080241081A1, “AMIDE COMPOUND OR SALT THEREOF, AND BIOFILM REMOVER CONTAINING THE SAME” (priority 2006, published 2008)

Key:
[1] = tested on: biofilm formed by Pseudomonas aeruginosa (gfp expression PAO1-strain); assay: Evaluation test for removing biofilms formed by Pseudomonas aeruginosa (flow cell system, fluorescence confocal microscope); format: cell-based; conditions: test liquid 100 μM compound; for state of deposited biofilm observed over time: flow 200 μL per minute, observed after 3, 4, 5, 6, 7 and 10 days, compared with DMSO control test liquid; for biofilm removal effect (conclusion): flow cell system, up to 10 days
Method: Each of the amide compounds (Compound 1a-1, 1a-2, 1b-1 and 1c-1) produced in Production Examples 1 to 4 was evaluated for its biofilm removal effect, using the flow cell system shown in FIG. 1.
A culture medium bottle (1), a peristaltic pump (2), a glass cell (4) and a waste fluid bottle (5) are connected via a silicon tube (6) so that a culture medium (9) is supplied to the glass cell from the culture medium bottle (1) using the peristaltic pump (2). The system includes an air removal section (3) between the peristaltic pump (2) and a turncock (7a), for removing the entrained air. All tools in the flow cell system are sterilized using gamma-rays or an autoclave.
As specifically described later, the effect for removing biofilms is examined in the following manner. Bacteria are cultured in a glass cell (4) to grow a biofilm on the inner wall of the cell, and a test liquid containing one of the amide compounds is applied to the biofilm. Then the condition of the biofilm is observed to evaluate the biofilm-removing effect of the compound using a fluorescence confocal microscope (Leica TCS SP2: product of Leica).
The bacteria was prepared by inserting a pTdk-LVAgfp plasmid into a Pseudomonas aeruginosa PAO1-strain using the electroportion method so that the Pseudomonas aeruginosa PAO1-strain is transformed to express Green Fluorescent Protein (hereinafter referred to as “gfp expression PAO1-strain”) (see Teresa R. et al., Applied and Environmental Microbiology, April 2001, p. 1865-1873).
A 30 mM glucose-containing FAB culture medium was used for preincubation, and a 0.3 mM glucose-containing FAB culture medium was used for main cultivation.
The glucose-containing FAB culture medium was prepared by adding 200 μg/mL of carbenicillin to an aqueous solution containing 30 mM glucose or 0.3 mM glucose, 15 mM ammonium sulfate, 33.7 mM disodium hydrogenphosphate, 22.1 mM dipotassium hydrogenphosphate, 51.7 mM sodium chloride, 0.47 mM magnesium chloride, 0.08 mM calcium chloride and the following 0.1% trace metal solution.
An aqueous solution containing 1.16 mM calcium sulfate dihydrate, 0.72 mM iron sulfate heptahydrate, 0.08 mM manganous sulfate monohydrate, 0.08 mM copper sulfate pentahydrate, 0.07 mM zinc sulfate heptahydrate, 0.04 mM cobalt sulfate heptahydrate, 0.04 mM […], and 0.08 mM boric acid.
A gfp expression PAO1-strain was inoculated in a 30 mM glucose-containing FAB culture medium, and was subjected to shake culture at 37° C. in an isothermal tank overnight. The obtained overnight culture liquid was diluted by a 30 mM glucose-containing FAB culture medium to OD590=0.1. […]

[2] = tested on: biofilm formed by Porphyromonas gingivalis 381-strain; assay: Evaluation test for removing biofilms formed by periodontitis pathogenic bacteria (flow cell system, optical microscope); format: cell-based; conditions: same experiment as Experiment Example 1, Porphyromonas gingivalis 381-strain, 10 days
Method: The same experiment as in Experiment Example 1 was conducted except that periodontitis pathogenic bacteria Porphyromonas gingivalis 381-strain (clinical bacteria) was used in place of Pseudomonas aeruginosa PAO1-strain. […] The gradual exfoliation of the deposited biofilm from the cell wall, and the flowing flakes of biofilm exfoliation in the cell were also visually observed.

autoinducer = conditions: as taught by Patent Document 1 (JP 2006-512290); cited from earlier work

| SMILES | state of deposited biofilm observed over time [1] | biofilm removal effect (conclusion) [1] | state of biofilm (removal) [2] | autoinducer agonist activity (autoinducer) |
| --- | --- | --- | --- | --- |
| CCCCCCCCCC(=O)CC(=O)Nc1ccccc1O [Comparative Compound 1, reference compound] | a similar biofilm formation to that of the control test using the control test liquid was observed |  |  |  |
| CCCCCCCCCC(=O)CC(=O)NN1CCCC1 [Compound 1a-1, N-(pyrrolidin-1-yl)-3-oxododecanoyl amide] |  | effective for removing deposited biofilms | nearly the entire biofilm was removed in 10 days |  |
| CCCCCCCCCC(=O)CC(=O)NN1CCCCC1 [Compound 1a-2, N-(piperidine-1-yl)-3-oxododecanoyl amide] | gradual disappearance of the deposited biofilm with time was observed | effective for removing deposited biofilms | nearly the entire biofilm was removed in 10 days |  |
| CCCCCCCCCC(=O)CC(=O)NN1CCCCC1 [drawing 7] |  |  |  | exhibits autoinducer agonist activity |
